From patent US5945450A, “Naphthalene derivative” (Teijin Limited, priority 1994, dated 1999)

Tests used:
IgM = experiment: In vivo inhibition of IgM production in TNP-KLH immunized mice; parameters: species or system BDF1 mice; conditions: 100 mg/kg/day subcutaneously, twice a day for 10 days, N=10
Description: (§1) TNP-KLH (trinitrophenyl-keyhole-lymphet-hemocyanin) was prepared by the method as described in J. Immunol., 97:421-430, 1966 from KLH and trinitrobenzene sulfonic acid. A […] of TNP-KLH suspended in 0.2 ml of saline and 1 mg of aluminum hydroxide gel were injected into the peritoneal cavity of BDF1 mice (8 weeks old) for immunization. From the day of immunization onward, the compound of this invention listed in Table 5 was given subcutaneously to the same animal twice a day for 10 days (100 mg/kg/day, dissolved in 0.5% Tween 80 in saline, and N=10). To the control group, 0.5% Tween 80 in saline was given at the same time schedule (N=10). Ten days after immunization, blood was extracted from the heart, and the concentrations of IgE, IgG1 and IgM antibodies were determined by ELISA (Immunol. Lett., 23:251-256, 1990, and Eur. J. Immunol., 20:2499-2503, 1990). Inhibition (%) of the antibody production with respect to the control was calculated.

IgE = experiment: In vivo inhibition of IgE production in TNP-KLH immunized mice; parameters: species or system BDF1 mice; conditions: 100 mg/kg/day subcutaneously, twice a day for 10 days, N=10
Description: as §1

human IgG antibodies = experiment: In vitro inhibition of human IgG antibody production (lymphocytes + IL-4 + anti CD40Ab + IL-10, ELISA); format: cell-based; conditions: Lymphocyte
Description: (§2) According to the method described in J. Immunol., 146:1836-1842, 1991 and J. Immunol., 147:8-13, 1991, the concentrations of IgE and IgG antibodies were measured by the procedures described below.
(§3) Peripheral venous blood was sampled from the healthy person, and submitted to density-gradient centrifugation to isolate lymphocytes. The lymphocytes thus obtained were washed and suspended in a culture medium (RPMI-1640 (provided by Gibco)+10% heat-inactivated FCS (Whittaker)+100 µg/ml streptomycin+100 U/ml penicillin+2mM L-glutamine). The cell suspensions were cultured for 1 week in the presence/absence of the compounds of this invention at the concentrations as described in Tables 3-1 to 3-2 together with human interleukin 4 (IL-4, Genzyme)([…]), anti CD40 antibodies (anti CD40Ab, Biosource, clone B-B20)([…]) and human interleukin 10 (IL-10, Genzyme)([…]). The culture medium was supplied freshly to the cell suspension, and the mixture was further cultured for another week. The supernatant was sampled and the concentrations of IgE and IgG antibodies therein were measured by sandwich ELISA.
(§4) The ELISA was based, for the assay of IgE antibodies, on the use of rabbit anti-human IgE() antibodies (ICN) as the primary antibody and biotin-linked anti-human IgE monoclonal antibodies (G7-26, PharMingen) as the secondary antibody. For the assay of IgG antibodies, anti-human IgG monoclonal antibodies (G18-145, PharMingen) and biotin-linked donkey anti-human IgG antibodies (H+L)(Jackson) were used for the primary and secondary antibodies, respectively. For the assay of both IgE and IgG antibodies, Avidin-Biotin-Horse Radish Peroxidase (ABC kit, Vector Lab) and TMB (3,3',5,5'-tetramethylbenzidine) microwell peroxidase substrate system (Kirkegaard & Perry Laboratories Inc.) were used as the enzyme and the substrate, respectively. The assays were made by the use of conventionally known ELISA.
(§5) The inhibitory effect (%) of a given compound of this invention on the production of the antibody was calculated with respect to the concentration of the same antibody when the compound was not coexistent (refer to Uejima et al., American Academy of Allergy and Immunology, Proceedings of 1995 Annual Meeting, Program No. 818).

TF (tissue factor) = experiment: Inhibitory effects on the TF production in LPS-stimulated human peripheral blood monocytes; format: cell-based; conditions: Monocyte, LPS 1 μg/ml, 16 hours
Description: Peripheral venous blood was sampled from the healthy person, and submitted to density-gradient centrifugation so that monocytes might be isolated. The monocytes thus obtained were washed with minimum essential medium (MEM, Gibco) and suspended in a culture medium (RPMI-1640(Gibco)+25 mM HEPES buffer+100 μg/ml streptomycin+100 U/ml penicillin G+2 mM L-glutamine) to give a suspension with a density of 1×10^6 cells/ml. A 0.15 ml of the cell suspension was placed onto each of the wells of a 96-well microplate, to which the compound of this invention as described in Tables 4-1 to 4-2 was added (0.05 ml of the culture medium), and the assembly was placed for 1 hour in a CO2 incubator for cultivation. Then, LPS (lipopolysaccarides, E. coli 0111B4, Difco) 1 μg/ml was added thereto, and the assembly was further cultured for 16 hours. After the supernatant being removed, the residue was washed with physiological saline, 0.1 ml of 16 mM OG (n-octyl-β-D-glucopyranoside) was added thereto, and the assembly was stirred to make TF soluble. A 0.2 ml of physiological saline was added to each residue (final dilution was […]) and this preparation was used for determination of the coagulation stimulating activity (TF-like activity). The test compound had been dissolved in DMSO to give a 0.1 M solution which was diluted with the culture medium prior to use. The final concentration of DMSO was 0.01% or less.
To each well of the microplate, 50 μl of human plasma and 50 μl of the test sample prepared as above for determination of the coagulation stimulating activity, or 50 μl of standard thromboplastin (human thromboplastin, Thromborel S, Behringwerke) were added. The microplate was incubated at 37° C. for 5 minutes, to which was added 25 mM CaCl2 (50 μl/well) containing phosphorous lipids (Platelin, Organon Teknica) at a concentration of […] to initiate coagulation. Coagulation was determined on the basis of absorption at 540 nm, and the measurement lasted 7 to 20 minutes. The data were analyzed with a data analyzing software SOFTMax (Molecular Devices) and the maximum rate time was taken as the coagulation time. The logarithmic values of the coagulation times and standard thromboplastin concentrations are plotted, and a regression parabola was drawn among the dots to give a test curve. From the curve, the inhibitory effect (%) of a given test compound on TF production was calculated. (Refer to J. Imnmunol. Methods, 133:21-29, 1990, and Proc. Natl. Acad. Sci. USA, 89:10370-10374, 1992).

human IgE antibodies = experiment: In vitro inhibition of the production of human IgE antibodies (lymphocytes + IL-4 + anti CD40Ab + IL-10, ELISA); format: cell-based; conditions: Lymphocyte, read-out: Inhibition of antibody production (%) IgE
Description: as §2, §3, §4, §5

IgG1 = experiment: In vivo inhibition of IgG1 production in TNP-KLH immunized mice; parameters: species or system BDF1 mice; conditions: 100 mg/kg/day subcutaneously, twice a day for 10 days, N=10
Description: as §1

Row | Structure (SMILES) | Inhibition of antibody production (%) IgM (IgM) | Inhibition of antibody production (%) IgE (IgE) | inhibition at 1 µM (human IgG antibodies) | inhibition at 3 µM (human IgG antibodies) | inhibition at 10 µM (human IgG antibodies) | inhibition at 1 µM (TF (tissue factor); 1 μM) | inhibition at 3 µM (TF (tissue factor)) | inhibition at 10 µM (TF (tissue factor); 10 μM) | inhibition at 1 µM (human IgE antibodies) | inhibition at 3 µM (human IgE antibodies) | inhibition at 10 µM (human IgE antibodies) | Inhibition of antibody production (%) IgG1 (IgG1)
1 | O=C(Nc1ccccc1C(=O)O)c1ccc(Oc2ccc3ccccc3c2)cc1 [Compound No. 1104, 2-(4-(2-naphtyloxy)benzamide)benzoic Acid] | 56.1% | 60.4% | -4.7% | -6.2% | 20.5% | 45.3% | 90.4% | 100% | 35.9% | 85.6% | 98.2% | 24.4%
2 | O=C(Cc1ccc(Oc2ccc3ccccc3c2)cc1)Nc1ccccc1C(=O)O [Compound No. 1126, 2-(4-(2-naphtyloxy)phenylacetamide)benzoic acid] | 70.2% | 78.9% | -5% | 35.4% | 84% |  | 26.5% |  | 63.9% | 93.5% | 97.9% | 46.8%
